Data on 29 compounds can be found in patent US20230348454A1, “COMPOUNDS AS MODULATORS OF BIS-PHOSPHOGLYCERATE MUTASE FOR THE TREATMENT OF SICKLE CELL DISEASE” (Genzyme Corporation, priority 2020, published 2023).

The assay concerns the target T1, hBPGM (Homo sapiens, UniProt P07738).
T1 sequence (P07738 1-259): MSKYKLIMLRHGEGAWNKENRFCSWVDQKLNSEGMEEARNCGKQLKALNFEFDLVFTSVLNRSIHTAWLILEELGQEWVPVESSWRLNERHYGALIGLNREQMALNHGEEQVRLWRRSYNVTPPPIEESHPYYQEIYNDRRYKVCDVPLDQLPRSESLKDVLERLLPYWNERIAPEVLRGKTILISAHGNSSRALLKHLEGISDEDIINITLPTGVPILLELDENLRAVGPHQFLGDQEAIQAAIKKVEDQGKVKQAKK
The experiment in a line: BPGM synthase assay. The class given is biochemical. As to conditions: Table 6; read-out: huBPGM: synthase Enzyme IC50. Here is the method:
The following materials were used in this assay: deionized water; Bisphosphoglycerate mutase (BPGM; Standard Buffer: 50 mM Tris, 0.01% Tween 20, pH 7.4); BPGM Reaction Buffer (50 mM Tris, 0.01% Tween 20, 3.23 mM KH2PO4, pH 7.4); dithiothreitol (DTT; Stock solution: 100 mM in Standard Buffer); 384-Well Black Assay Plate (Corning, P/N 3575); DMSO; BPGM Stock Solution (500 nM in BPGM Standard Buffer); Glyceraldehyde 3-phosphate dehydrogenase (GAPDH; Stock Solution: 40 U/mL in 20 mM Tris-HCL Buffer with 20% Glycerol, 1 mM EDTA, 1 mM DTT); Glyceraldehyde 3-phosphate (GAP; Stock Solution: 20 mM in BPGM Standard Buffer); 3-PG Stock Solution (500 μM in BPGM Standard Buffer); Nicotinamide adenine dinucleotide (NAD; Stock Solution: 50 mM in BPGM Standard Buffer); Koningic Acid (1 mM Stock in DMSO); Resazurin Stock Solution (10 mM in DMSO); Diaphorase Stock Solution (40 U/mL in BPGM Standard Buffer); DTT Reaction Buffer (1 mM DTT in BPGM Reaction Buffer); Enzyme Solution (5 nM BPGM, 0.4 U/mL GAPDH in DTT Reaction Buffer); GAPDH Solution (0.4 U/mL GAPDH in DTT Reaction Buffer); Substrate Solution (2 mM NAD, 20 μM 3PG, 800 μM GAP in DTT Reaction Buffer); and Resazurin Solution (5 U/mL Diaphorase, 500 μM Resazurin in BPGM Standard Buffer).
To the assay plate was added Enzyme Solution (20 uL) to columns 2-22 and 24 of the assay plate. To columns 1 and 23 was added GAPDH Solution (20 uL). A separate compound plate was prepared at the desired concentrations and all wells were normalized with 5% DMSO. The compound plate was incubated for 30 minutes at RT. Next, the substrate solution (20 μL) was dispensed to all reaction wells and the plate was incubated for 60 minutes at RT. Koningic acid (1 μL) was added and the plate was incubated for 10 minutes at RT. During this time period, the NADH fluorescence was read at ex: 360/em: 460. Next, Resazurin Solution (10 μL) was added to all reaction wells and the plate was incubated for 30 minutes at RT. The resorufin fluorescence was then read at ex:544/em:590.

Consider `Cc1nc(COc2ncccn2)sc1-c1ccnc(-c2cc(O)c(C#N)c(F)c2)c1` [Example 24], for which the IC50 worked out at 250 nM.

As for `Cc1nc(C(=O)N2CCC(O)C2)sc1-c1cccc(-c2cc(F)c3[nH]nnc3c2F)n1` (centres unmarked) [Example 25], the 50% inhibitory concentration (IC50) came to 4400 nM.

Take `Cc1nc(CN2CCCC2=O)sc1-c1cccc(-c2cc(F)c3nn[nH]c3c2F)n1` [Example 26]: the concentration for half-maximal inhibition (IC50) turned out to be 110 nM.

In the case of `Cc1nc(CN/C(=N/C#N)N(C)C)sc1-c1cccc(-c2cc(F)c(O)c(F)c2F)n1` [Example 27], the IC50 stood at 1500 nM.

With `Cc1nc(CNC(=O)N(C)C)sc1-c1cccc(-c2cc(F)c(O)c(F)c2F)n1` [Example 28], the IC50 was 1600 nM.

For the compound `Cc1nc(COC(=O)N2CCC(N)C2)sc1-c1cccc(-c2cc(F)c(O)c(F)c2F)n1` (centres unmarked) [Example 29], the IC50 is 5700 nM.

Take `Cc1nc(NC(=O)OC(C)(C)C)sc1-c1cccc(-c2cc(F)c3[nH]nnc3c2F)n1` [Example 30]: the IC50 came to 200 nM.

As to `Cc1nc(COC(=O)N2CCC(C)(O)C2)sc1-c1cccc(-c2cc(F)c3[nH]nnc3c2F)n1` (centres unmarked) [Example 31], the half-maximal inhibitory concentration (IC50) worked out at 35 nM.

In the case of `Cc1nc(COC(=O)N2CCC(N(C)C)C2)sc1-c1cccc(-c2cc(F)c3nn[nH]c3c2F)n1` (centres unmarked) [Example 32], the IC50 was 76 nM.

Turning to `Cc1nc(COc2ncccn2)sc1-c1csc(-c2cc(F)c(C#N)c(O)c2F)n1` [Example 33], the IC50 is 250 nM.

Turning to `COCc1nc(C)c(-c2cccc(-c3cc(F)c4nn[nH]c4c3F)n2)s1` [Example 34], the half-maximal inhibitory concentration (IC50) turned out to be 250 nM.

For the compound `Cc1nc(COC(=O)N2CCC(O)C2)sc1-c1cccc(-c2cc(F)c(O)c(F)c2F)n1` (centres unmarked) [Example 35], the IC50 turned out to be 600 nM.

As for `Cc1nc(COC(=O)N(C)CCN(C)C)sc1-c1cccc(-c2cc(F)c(O)c(F)c2F)n1` [Example 36], the IC50 turned out to be 1300 nM.

For the compound `Cc1nc(C)c(-c2cnn(-c3cc(F)c4[nH]nnc4c3F)c2)s1` [Example 37], the 50% inhibitory concentration (IC50) was determined as 13000 nM.

For the compound `Cc1nc(COc2cccnn2)sc1-c1csc(-c2cc(F)c3[nH]nnc3c2F)n1` [Example 38], the IC50 was 36 nM.

For `COC1CCN(C(=O)OCc2nc(C)c(-c3cccc(-c4cc(F)c5nn[nH]c5c4F)n3)s2)C1` (centres unmarked) [Example 39], the IC50 is 41 nM.

In the case of `COCC1CCCN1C(=O)OCc1nc(C)c(-c2cccc(-c3cc(F)c4nn[nH]c4c3F)n2)s1` (centres unmarked) [Example 40], the half-inhibitory concentration (IC50) amounted to 44 nM.

Turning to `Cc1nc(COc2ccccn2)sc1-c1ccnc(-c2cc(F)c3nn[nH]c3c2F)n1` [Example 41], the IC50 was determined as 75 nM.

Consider `Cc1nc(C)c(-c2ccn(-c3cc(F)c4[nH]nnc4c3F)n2)s1` [Example 42], for which the concentration for half-maximal inhibition (IC50) was found to be 4100 nM.

Take `Cc1nc(CNC(=O)c2cccnn2)sc1-c1nc(-c2cc(F)c3nn[nH]c3c2F)cs1` [Example 43]: the IC50 came to 14 nM.

Consider `Cc1nc(COC(=O)N(C)C)sc1-c1nc(-c2cc(F)c3nn[nH]c3c2F)cs1` [Example 44], for which the half-inhibitory concentration (IC50) was 25 nM.

On to `Cc1nc(CN/C(=N/C#N)N(C)C)sc1-c1cccc(-c2cc(F)c3nn[nH]c3c2F)n1` [Example 45], for which the IC50 worked out at 48 nM.

For the compound `Cc1nc(COC(=O)N(C)C)sc1-c1ccn(-c2cc(F)c3[nH]nnc3c2F)n1` [Example 46], the half-inhibitory concentration (IC50) amounted to 130 nM.

`Cc1nc(COC(=O)N2CCC(O)CC2)sc1-c1cccc(-c2cc(F)c3nn[nH]c3c2F)n1` [Example 47]: the IC50 turned out to be 25 nM.

`Cc1nc(COCC(=O)N(C)C)sc1-c1nc(-c2cc(F)c3nn[nH]c3c2F)cs1` [Example 48]: the IC50 was 31 nM.

Take `Cc1nc(COCC(=O)N(C)C)sc1-c1csc(-c2cc(F)c3[nH]nnc3c2F)n1` [Example 49]: the IC50 came to 47 nM.

Consider `Cc1nc(COC(C)C(=O)N(C)C)sc1-c1csc(-c2cc(F)c3[nH]nnc3c2F)n1` (centres unmarked) [Example 50], for which the IC50 is 74 nM.

Turning to `Cc1nc(CNc2ncccn2)sc1-c1csc(-c2cc(F)c3[nH]nnc3c2F)n1` [Example 51], the IC50 was 280 nM.

As for `Cc1nc(CN(C)C)sc1-c1cccc(-c2cc(F)c3nn[nH]c3c2F)n1` [Example 52], the IC50 came to 390 nM.
